Patent US20120053211A1, “TREATMENT OF PANCREATIC CANCER” (ARDEA BIOSCIENCES, INC., priority 2009, published 2012)
Like-named read-outs stand apart in the source and are kept apart here.

Key:
[1] = test system: human pancreatic cancer cell line BxPC3; assay: In vitro activity in human pancreatic cancer cell line BxPC3; type: cell-based; conditions: read-out: EC50 (nM) (±standard deviation)
Protocol: The in vitro activity of compound A was determined in the human pancreatic cancer cell line BxPC3 (normal […] status). EC50 values were determined (in 1% FBS and with 45 mg/mL has), as follows

tumor = assay: Tumor volume following administration of compound A (FIG. 3, FIG. 4); type: in vivo

EC50 ([1]; BXPC-3, BxPC3, 1% FBS): 15.8 ± 2.4 nM | EC50 ([1]; BXPC-3, BxPC3, +45 mg/mL hSA): 207 ± 29 nM
Structure (SMILES): COc1cc(F)c(F)c(Nc2ccc(I)cc2F)c1NS(=O)(=O)C1(C[C@H](O)CO)CC1 [Compound A, (S)-N-(3,4-difluoro-2-(2-fluoro-4-iodophenylamino)-6-methoxyphenyl)-1-(2,3-dihydroxypropyl)cyclopropane-1-sulfonamide]
tumor volume as a function of time (tumor; FIG. 3): decrease in tumor volume | tumor volume as a function of time (tumor; FIG. 4): decrease in tumor volume
